Measured values: patent EP4800015A1, “AZABICYCLO DERIVATIVE AND PREPARATION METHOD THEREFOR, AND USE” (Zhejiang Hisun Pharmaceutical Co., Ltd., priority 2023, dated 2025)

What was measured:
[1] = tested on: RL95-2 cells; test: Inhibition of RL95-2 cell proliferation (CellTiter-Glo); assay type: cell-based; settings: Homo sapiens; RL95-2 cells (MSI-H), 120 hours
Protocol: (§1) The following method was used to determine the effect of the compounds of the present disclosure on RL95-2 cell proliferation. RL95-2 cells (MSI-H cells) were purchased from Cell Resource Center of Shanghai Institutes for Biological Sciences, Chinese Academy of Sciences, and cultured in DMEM/F12 medium (Gibco, catalog No. A4192001) containing 10% fetal bovine serum, 100 U penicillin, and 100 µg/mL streptomycin. Cell viability was determined by CellTiter-Glo® Luminescent Cell Viability Assay kit (Promega, catalog No. G7573).
(§2) The experiment was performed according to the steps of the kit manual, which is briefly described as follows: test compounds were first dissolved in DMSO to prepare 10 mM stock solutions, and then diluted with medium to prepare test samples, with final compound concentrations ranging from 10000 nM to 1.52 nM. Cells in logarithmic growth phase were seeded into 96-well cell culture plates at a density of 500 cells per well and cultured overnight at 37 °C in a 5% CO2 incubator, and then test compounds were added and cultivation continued for 120 hours. After the cultivation was completed, 50 µL of CellTiter-Glo detection reagent was added to each well, shaken for 5 minutes, and then left to stand for 10 minutes. Luminescence values of each well were read on a microplate reader using Luminescence mode. The percentage inhibition at each concentration point was calculated by comparison with the control group (0.1% DMSO), and then IC50 values for the compounds for inhibition of cell proliferation were obtained using nonlinear regression analysis of compound concentration logarithm versus inhibition rate in GraphPad Prism 9 software, as shown in Table 3.
The IC50 value results of the compounds of the present disclosure are represented by A, wherein "A" indicates 1 nM < IC50 ≤ 100 nM. Table 3 IC50 data for inhibition of RL95-2 cell proliferation by the compounds of the present disclosure

[2] = molecular target: T1, recombinant human WRN (Homo sapiens, UniProt Q14191); test: Inhibition of WRN enzyme activity (ATPase), ADP-Glo Kinase Assay; assay type: biochemical; settings: WRN protein 5 nM, Flap 0.1 nM, ATP 30 µM; read-out: IC50
T1 construct: purchased BPS 101264
T1 sequence (Q14191 whole entry): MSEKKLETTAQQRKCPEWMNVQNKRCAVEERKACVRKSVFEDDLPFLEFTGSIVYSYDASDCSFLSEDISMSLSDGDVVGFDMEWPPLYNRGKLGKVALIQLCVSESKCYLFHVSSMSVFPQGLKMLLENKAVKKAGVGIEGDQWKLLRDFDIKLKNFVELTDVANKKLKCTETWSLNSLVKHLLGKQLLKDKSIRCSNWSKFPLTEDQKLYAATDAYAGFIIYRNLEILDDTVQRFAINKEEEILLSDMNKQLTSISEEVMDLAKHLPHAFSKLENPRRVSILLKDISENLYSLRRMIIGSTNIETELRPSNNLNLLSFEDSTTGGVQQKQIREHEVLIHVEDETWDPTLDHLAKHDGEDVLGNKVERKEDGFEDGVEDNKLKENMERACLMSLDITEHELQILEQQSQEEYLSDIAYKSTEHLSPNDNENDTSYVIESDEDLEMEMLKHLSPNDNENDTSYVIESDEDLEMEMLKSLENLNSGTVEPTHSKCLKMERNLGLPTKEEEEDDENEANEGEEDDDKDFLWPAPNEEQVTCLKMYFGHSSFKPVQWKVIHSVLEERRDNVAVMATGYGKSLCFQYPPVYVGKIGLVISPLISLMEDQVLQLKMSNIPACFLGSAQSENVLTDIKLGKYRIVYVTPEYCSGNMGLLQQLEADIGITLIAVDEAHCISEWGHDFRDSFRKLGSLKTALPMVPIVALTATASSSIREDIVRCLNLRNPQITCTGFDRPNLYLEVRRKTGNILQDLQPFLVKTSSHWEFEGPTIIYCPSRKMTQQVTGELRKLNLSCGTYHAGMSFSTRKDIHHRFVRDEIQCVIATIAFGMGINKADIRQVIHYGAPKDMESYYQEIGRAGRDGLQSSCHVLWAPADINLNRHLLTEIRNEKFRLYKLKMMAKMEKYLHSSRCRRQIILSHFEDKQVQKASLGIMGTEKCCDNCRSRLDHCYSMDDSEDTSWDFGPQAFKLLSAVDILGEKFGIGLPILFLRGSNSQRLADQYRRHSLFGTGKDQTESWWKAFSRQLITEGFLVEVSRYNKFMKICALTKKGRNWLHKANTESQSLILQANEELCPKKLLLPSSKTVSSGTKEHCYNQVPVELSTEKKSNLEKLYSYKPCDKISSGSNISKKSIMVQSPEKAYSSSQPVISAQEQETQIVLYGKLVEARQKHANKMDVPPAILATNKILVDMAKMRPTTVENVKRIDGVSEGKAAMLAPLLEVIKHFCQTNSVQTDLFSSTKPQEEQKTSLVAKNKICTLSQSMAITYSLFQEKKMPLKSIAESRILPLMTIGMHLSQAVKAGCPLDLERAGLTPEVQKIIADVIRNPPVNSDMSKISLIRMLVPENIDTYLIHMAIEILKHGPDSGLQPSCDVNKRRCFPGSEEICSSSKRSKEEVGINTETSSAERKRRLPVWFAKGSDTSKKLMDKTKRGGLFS
Procedure, shortened: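 Recombinant human WRN (5 nM) was preincubated with compound (1000–0.004 nM) for 15 min at room temperature. Flap26 5'-flap DNA (0.1 nM) and 30 µM ATP were then added for 10 min in Tris pH 7.5, MgCl2, NaCl, BSA, Pluronic buffer. ADP was detected by ADP-Glo luminescence, and IC50 was obtained by nonlinear regression versus a 0.1% DMSO control.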

[3] = tested on: SW48 cells; test: Inhibition of SW48 cell proliferation (CellTiter-Glo); assay type: cell-based; settings: Homo sapiens; SW48 cells (MSI-H), 120 hours
Protocol: as §1, with “SW48” for “RL95-2”, “American ATCC cell bank” for “Cell Resource Center of Shanghai Institutes for Biological Sciences, Chinese Academy of Sciences,”, “Leibovitz's L-15” for “DMEM/F12”, “11415064)” for “A4192001)”
as §2, with “in an air” for “in a 5% CO2”, “incubator,” for “incubator, and”, “completed, 40” for “completed, 50”, “Table 2.” for “Table 3.”
The IC50 value results of the compounds of the present disclosure are represented by A, wherein "A" indicates 1 nM < IC50 ≤ 100 nM. Table 2 IC50 data for inhibition of SW48 cell proliferation by the compounds of the present disclosure

SMILES	IC50 [2] [nM]	IC50 [3] [nM]	IC50 [1] [nM]
CCc1c(N2CCN(C(=O)c3ncnc(C)c3O)CC2)c(=O)n2nc(-c3ccc4c(c3)COC4)nc2n1CC(=O)Nc1ccc(C(F)(F)F)cc1Cl [Example 129, N-(2-chloro-4-(trifluoromethyl)phenyl)-2-(2-(1,3-dihydroisobenzofuran-5-yl)-5-ethyl-6-(4-(5-hydroxy-6-methylpyrimidine-4-carbonyl)piperazin-1-yl)-7-oxo-[1,2,4]triazolo[1,5-a]pyrimidin-4(7 H)-yl)acetamide]	1 to 100	1 to 100	1 to 100
CCc1c(N2CCN(C(=O)c3nc(C)ncc3O)CC2)c(=O)n2nc(-c3ccc4c(c3)CCO4)nc2n1CC(=O)Nc1ccc(C(F)(F)F)cc1Cl [Example 150, N-(2-chloro-4-(trifluoromethyl)phenyl)-2-(2-(2,3-dihydrobenzofuran-5-yl)-5-ethyl-6-(4-(5-hydroxy-2-methylpyrimidine-4-carbonyl)piperazin-1-yl)-7-oxo-[1,2,4]triazolo[1,5-a]pyrimidin-4(7H)-yl)acetamide]	1 to 100	1 to 100	1 to 100
CCc1c(N2CCN(C(=O)c3ncccc3O)CC2)c(=O)n2nc(C3=CC4CC(O)CC4C3)nc2n1CC(=O)Nc1ccc(S(F)(F)(F)(F)F)cc1 (centres unmarked) [Example 178, 2-(5-ethyl-2-(5-hydroxy-1,3a,4,5,6,6a-hexahydropentalen-2-yl)-6-(4-(3-hydroxypicolinoyl)piperazin-1-yl)-7-oxo-[1,2,4]triazolo[1,5-a]pyrimidin-4(7H)-yl)-N-(4-(pentafluoro-λ^6-sulfaneyl)phenyl) acetamide]	< 1	1 to 100	1 to 100
CCc1c(N2CCN(C(=O)c3ncnc(C)c3O)CC2)c(=O)n2nc(C3=CCCCOC3)nc2n1CC(=O)Nc1ccc(S(F)(F)(F)(F)F)cc1Cl [Example 84, N-(2-chloro-4-(pentafluoro-λ^6-sulfaneyl)phenyl)-2-(5-ethyl-6-(4-(5-hydroxy-6-methylpyrimidine-4-carbonyl)piperazin-1-yl)-7-oxo-2-(2,5,6,7-tetrahydrooxepin-3-yl)-[1,2,4]triazolo[1,5-a]pyrimidin-4(7H)-yl)acetamide]	1 to 100	1 to 100	1 to 100
CCc1c(N2CCN(C(=O)c3ncnc(C)c3O)CC2)c(=O)n2nc(-c3cc4ccncc4s3)nc2n1CC(=O)Nc1ccc(C(F)(F)F)cc1Cl [Example 132, N-(2-chloro-4-(trifluoromethyl)phenyl)-2-(5-ethyl-6-(4-(5-hydroxy-6-methylpyrimidine-4-carbonyl)piperazin-1-yl)-7-oxo-2-(thieno[2,3-c]pyridin-2-yl)-[1,2,4]triazolo[1,5-a]pyrimidin-4(7H)-yl)a cetamide]	1 to 100	1 to 100	1 to 100
CCc1c(N2CCN(C(=O)c3ncccc3O)CC2)c(=O)n2nc(C3=CC4COCC4C3)nc2n1CC(=O)Nc1ccc(C(F)(F)F)cc1Cl (centres unmarked) [Example 159, N-(2-chloro-4-(trifluoromethyl)phenyl)-2-(5-ethyl-6-(4-(3-hydroxypicolinoyl)piperazin-1-yl)-7-oxo-2-(3,3a,4,6a-tetrahydro-1H-cyclopenta[c]furan-5-yl)-[1,2,4]triazolo[1,5-a]pyrimidin-4(7H)-yl) acetamide]	1 to 100	1 to 100	1 to 100

Continued, in another order:

IC50 [2] [nM]	IC50 [3] [nM]	SMILES	IC50 [1] [nM]
1 to 100	1 to 100	CCc1c(N2CCN(C(=O)c3ncnc(C)c3O)CC2)c(=O)n2nc(-c3nc4ccccc4s3)nc2n1CC(=O)Nc1ccc(C(F)(F)F)cc1Cl [Example 133, 2-(2-(benzo[d]thiazol-2-yl)-5-ethyl-6-(4-(5-hydroxy-6-methylpyrimidine-4-carbonyl)piperazin-1-yl)-7-oxo-[1,2,4]triazolo[1,5-a]pyrimidin-4(7H)-yl)-N-(2-chloro-4-(trifluoromethyl)phenyl)acetamide]	1 to 100
1 to 100	1 to 100	CCc1c(N2CCN(C(=O)c3ncnc(C)c3O)CC2)c(=O)n2nc(-c3ccc4c(c3)CCCO4)nc2n1CC(=O)Nc1ccc(C(F)(F)F)cc1Cl [Example 130, N-(2-chloro-4-(trifluoromethyl)phenyl)-2-(2-(chroman-6-yl)-5-ethyl-6-(4-(5-hydroxy-6-methylpyrimidine-4-carbonyl)piperazin-1-yl)-7-oxo-[1,2,4]triazolo[1,5-a]pyrimidin-4(7H)-yl)acetamide]	1 to 100
1 to 100	1 to 100	CCc1c(N2CCN(C(=O)c3ncccc3O)CC2)c(=O)n2nc(C3=CC4CC(C)(O)CC4C3)nc2n1CC(=O)Nc1ccc(C(F)(F)F)cc1Cl (centres unmarked) [Example 164, N-(2-chloro-4-(trifluoromethyl)phenyl)-2-(5-ethyl-2-(5-hydroxy-5-methyl-1,3a,4,5,6,6a-hexahydropentalen-2-yl)-6-(4-(3-hydroxypicolinoyl)piperazin-1-yl)-7-oxo-[1,2,4]triazolo[1,5-a]pyrimidin-4(7H)-yl)acetamide]	1 to 100
1 to 100	1 to 100	[2H]C([2H])([2H])Sc1ccc(NC(=O)Cn2c(CC)c(N3CCN(C(=O)c4ncnc(C)c4O)CC3)c(=O)n3nc(-c4ccc5c(c4)CCO5)nc23)c(Cl)c1 [Example 147, N-(2-chloro-4-((methyl-d3)thio)phenyl)-2-(2-(2,3-dihydrobenzofuran-5-yl)-5-ethyl-6-(4-(5-hydroxy-6-methylpyrimidine-4-carbonyl)piperazin-1-yl)-7-oxo-[1,2,4]triazolo[1,5-a]pyrimidin-4(7H)-yl)acetamide]	1 to 100
1 to 100	1 to 100	CCc1c(N2CCN(C(=O)c3ncnc(C)c3O)CC2)c(=O)n2nc(-c3ccc4c(cnn4C)c3)nc2n1CC(=O)Nc1ccc(C(F)(F)F)cc1Cl [Example 113, N-(2-chloro-4-(trifluoromethyl)phenyl)-2-(5-ethyl-6-(4-(5-hydroxy-6-methylpyrimidine-4-carbonyl)piperazin-1-yl)-2-(1-methyl-1H-indazol-5-yl)-7-oxo-[1,2,4]triazolo[1,5-a]pyrimidin-4(7H)-yl) acetamide]	1 to 100
1 to 100	1 to 100	CCc1c(N2CCN(C(=O)c3ncccc3O)CC2)c(=O)n2nc(C3=CC4CC(=O)CC4C3)nc2n1CC(=O)Nc1ccc(C(F)(F)F)cc1Cl (centres unmarked) [Example 22, N-(2-chloro-4-(trifluoromethyl)phenyl)-2-(5-ethyl-6-(4-(3-hydroxypicolinoyl)piperazin-1-yl)-7-oxo-2-(5-oxo-1,3a,4,5,6,6a-hexahydropentalen-2-yl)-[1,2,4]triazolo[1,5-a]pyrimidin-4(7H)-yl)acet amide]	1 to 100
1 to 100	1 to 100	CCc1c(C2=CCN(C(=O)c3ncnc(C)c3O)CC2)c(=O)n2nc(C3=CCCCCC3)nc2n1CC(=O)Nc1ccc(S(F)(F)(F)(F)F)cc1 [Example 91, 2-(2-(cyclohept-1-en-1-yl)-5-ethyl-6-(1-(5-hydroxy-6-methylpyrimidine-4-carbonyl)-1,2,3,6-tetra hydropyridin-4-yl)-7-oxo-[1,2,4]triazolo[1,5-a]pyrimidin-4(7H)-yl)-N-(4-(pentafluoro-λ^6-sulfaneyl)phenyl)acetamide]	
